The values below are quoted from earlier work in patent US9040083B2, “Orally effective methylphenidate extended release powder and aqueous suspension product” (Tris Pharma, Inc., priority 2011, dated 2015).

The conditions of the series: oral dosing of radiolabeled methylphenidate in humans.

On to `COC(=O)C(c1ccccc1)C1CCCCN1` (stereo not shown) [methylphenidate], for which the “radioactivity recovered in urine” value was “about 90%”.
